Legend:
[1] = test system: Hsp90; assay: Western blot of hsp90 in heat shocked H9c2 cells; format: cell-based, rat
Experimental: (§1) Experiments set forth in this section were conducted to determine whether N-[2-hydroxy-3-(1-piperidinyl)propoxy]-3-pyridinecarboximidoyl chloride maleate acts to increase the expression of molecular chaperon by a cell. The accumulation of different heat shock proteins subsequent to a period of exposure to heat shock alone, and to heat shock in combination with N-[2-hydroxy-3-(1-piperidinyl)propoxy]-3-pyridinecarboximidoyl chloride maleate administration, was examined by adding 10^−5 M of N-[2-hydroxy-3-(1-piperidinyl)propoxy]-3-pyridinecarboximidoyl chloride maleate before, during, or immediately after hyperthermic treatment of heart myogenic cells (H9c2 cells).
(§2) The embryonic rat heart-derived cell line H9c2 was obtained from European Collection of Animal cell Cultures (ECACC) (88092904). The cells were maintained at 37° C. in Dulbecco's modified Eagle's medium (DMEM) supplemented with 10% fetal calf serum (GIBCO) in JOUAN C02 thermostat (5% CO2).
(§3) Heat shock was performed at 43° C. in CO2 thermostat for the given time intervals (20, 40, 60, 90 and 120 min.). Cells were then taken back to 37° C. for 6 hours and proteins were extracted for SDS-PAGE. […]
(§4) Protein concentration was determined from 5:1 samples by the Bradford assay (M. M. Braford, Anal. Biochem., 72: 248-254 (1976)) in three parallel. […]

[2] = test system: hsp26 mRNA; assay: Northern blot of hsp26 mRNA in S. cerevisiae; format: cell-based, Saccharomyces cerevisiae; conditions: 10-100 μM for 5 min. to 1 hour at 25° C.
Experimental: To S. cerevisiae cells that were maintained at 25° C., varying concentration of N-[2-hydroxy-3-(1-piperidinyl)propoxy]-3-piridinecarboximidoyl chloride maleate was introduced (concentrations between 10 to 100 μM), cells were then incubated for one hour at 25° C. in the presence of N-[2-hydroxy-3-(1-piperidinyl)propoxy]-3-piridinecarboximidoyl chloride maleate. The temperature was then increased to 42° C., and the oxygraph measurements were taken as described in the Patriarca reference.
The cells treated with N-[2-hydroxy-3-(1-piperidinyl)propoxy]-3-pyridine carboximidoyl chloride maleate were tested for concomitant induction of hsp genes, using Northern Blotting procedure. The method of extracting, purifying mRNAs from eukaryotic cells, and analyzing the RNA thus obtained using Northern blotting procedure is well known in the art and described in Maniatis, and Maresca, et al. Archives Medial Research 24: 247-249 (1993), both of the references being fully incorporated herein. The Northern blotting protocol is also described in Example 7 set forth above. Hsp 26 and hsp70 DNA sequences were used as probes.

[3] = test system: HSP72; assay: Heat stress induced hsp72 level in L-929 mouse fibroblast cells; format: cell-based; conditions: L-929 cells, 10^−5 M, treatment preceded heat stress
Experimental: From the applied cells the 3T3 and L-929 mouse fibroblasts were cultured in MEM medium and grew in monolayer, the U-937 human leukemia cells were maintained in RPMI-1640 medium, in suspension culture, while the HeLa human epithelial cells were cultured in DMEM medium and in monolayer form. Cell cultures were maintained as described in example 6.2 (a) with the difference that cells were cultured in the above mentioned culture mediums.
Experiments were carried out applying stress before and after the drug treatment. Stress was provoked by heat, by chemical agent, HgCl2 treatment. The test compounds were applied in the treatments at the 10^−5 M concentration.
The experiments on 3T3 cell applying heat stress were performed as described in the 6.2. (c) point of example 6, with the difference that stress was induced by a 30 min. exposure at 43° C. temperature and treatment with the test compounds was performed 15 min. before or 100 min. after the heat stress.
Experiments using heat shock on U-937 leukemia and L-929 mouse fibroblast cells were carried out similarly as described above, but drug treatments in these tests always preceded the heat stress. The compound N-[2-hydroxy-3-(1-piperidinyl)-propoxy]-3-pyridine-carboximidoyl chloride maleate was tested at the 10^−5 M concentration under these experimental conditions.

[4] = test system: Grp94; assay: Western blot of Grp94 in heat shocked H9c2 cells; format: cell-based, rat
Experimental: as §1, §2, §3, §4

O=C(O)/C=C\C(=O)O.OC(CON=C(Cl)c1cccnc1)CN1CCCCC1 (stereo not drawn) [N-[2-hydroxy-3-(1-piperidinyl)-propoxy]3-pyridinecarboximidoyl chloride maleate] was tested, and the “level of Hsp90 increased” value ([1]; added before the heat stress, 20 min. heat treatment) was “about fivefold”, the “effect on HSP90 level” value ([1]; added following 43° C. 60 min. treatment) was “as effective (if not more) as if added before high temperature stress” and the “induction of hsp 26” value [2] was “induction of hsp 26 was observed”. The “increase in the heat stress induced hsp72 level” value [3] was “more than 50%”, the “effect on Grp94 level” value ([4]; addition during recovery from heat stress lasting for 40 to 60 min.) was “almost effective as the administration” and the “increase of Grp94 compared to 43° C. treatment” value ([4]; preaddition of the drug combined with a 20 min. long heat shock) was 4 times.

From US7745465B2, “Method of enhancing cellular production of molecular chaperone, hydroxylamine derivatives useful for enhancing the chaperone production and the preparation thereof” (CytRx Corporation, priority 1995, dated 2010)
